Experiments:
Assay type in all cases: in vivo
[1] = system: Italian ryegrass (Lolium multiflorum); experiment: Test A preemergence, visual plant response rating; conditions: for Ryegrass, Italian plant response rating (0 to 100 scale): approx. 10 days
In short: (§1)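 Compared with untreated controls, treated plants received a visual injury score on a 0–100 scale around 10 days after application. The compound, in a non-phytotoxic solvent with surfactant, was given as a preemergence soil spray or postemergence at the one- to two-leaf stage.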

[2] = system: barnyardgrass (Echinochloa crus-galli); experiment: Test A preemergence, visual plant response rating; conditions: for Barnyardgrass plant response rating (0 to 100 scale): approx. 10 days
In short: as §1

[3] = system: foxtail, green (green foxtail, Setaria viridis); experiment: Test A preemergence, visual plant response rating; conditions: for Foxtail, Green plant response rating (0 to 100 scale): approx. 10 days
In short: as §1

kochia (Kochia scoparia) [4] = experiment: Test A preemergence, visual plant response rating; conditions: for Kochia plant response rating (0 to 100 scale): approx. 10 days
In short: as §1

[5] = system: pigweed (Amaranthus retroflexus); experiment: Test A preemergence, visual plant response rating; conditions: for Pigweed plant response rating (0 to 100 scale): approx. 10 days
In short: as §1

[6] = system: ragweed (common ragweed, Ambrosia elatior); experiment: Test A preemergence, visual plant response rating; conditions: for Ragweed plant response rating (0 to 100 scale): approx. 10 days
In short: as §1

[7] = system: Italian ryegrass (Lolium multiflorum); experiment: Test A postemergence, visual plant response rating; conditions: for Ryegrass, Italian plant response rating (0 to 100 scale): 500 g ai/ha, postemergence, 0 is no effect, 100 is complete control; for Ryegrass, Italian plant response rating: Postemergence, 125 g ai/ha, 0 to 100 scale (0 no effect, 100 complete control)
In short: as §1

[8] = system: barnyardgrass (Echinochloa crus-galli); experiment: Test A postemergence, visual plant response rating; conditions: for Barnyardgrass plant response rating (0 to 100 scale): 500 g ai/ha, postemergence, 0 is no effect, 100 is complete control; for Barnyardgrass plant response rating: Postemergence, 125 g ai/ha, 0 to 100 scale (0 no effect, 100 complete control)
In short: as §1

[9] = system: blackgrass (Alopecurus myosuroides); experiment: Test A postemergence, visual plant response rating; conditions: for Blackgrass plant response rating (0 to 100 scale): 500 g ai/ha, postemergence, 0 is no effect, 100 is complete control; for Blackgrass plant response rating: Postemergence, 125 g ai/ha, 0 to 100 scale (0 no effect, 100 complete control)
In short: as §1

corn (Zea mays) = experiment: Test A postemergence, visual plant response rating; conditions: for Corn plant response rating (0 to 100 scale): 500 g ai/ha, postemergence, 0 is no effect, 100 is complete control; for Corn plant response rating: Postemergence, 125 g ai/ha, 0 to 100 scale (0 no effect, 100 complete control)
In short: as §1

[10] = system: foxtail, green (green foxtail, Setaria viridis); experiment: Test A postemergence, visual plant response rating; conditions: for Foxtail, Green plant response rating (0 to 100 scale): 500 g ai/ha, postemergence, 0 is no effect, 100 is complete control; for Foxtail, Green plant response rating: Postemergence, 125 g ai/ha, 0 to 100 scale (0 no effect, 100 complete control)
In short: as §1

[11] = system: galium (catchweed bedstraw, Galium aparine); experiment: Test A postemergence, visual plant response rating; conditions: for Galium plant response rating (0 to 100 scale): 500 g ai/ha, postemergence, 0 is no effect, 100 is complete control; for Galium plant response rating: Postemergence, 125 g ai/ha, 0 to 100 scale (0 no effect, 100 complete control)
In short: as §1

kochia (Kochia scoparia) [12] = experiment: Test A postemergence, visual plant response rating; conditions: for Kochia plant response rating (0 to 100 scale): 500 g ai/ha, postemergence, 0 is no effect, 100 is complete control; for Kochia plant response rating: Postemergence, 125 g ai/ha, 0 to 100 scale (0 no effect, 100 complete control)
In short: as §1

[13] = system: pigweed (Amaranthus retroflexus); experiment: Test A postemergence, visual plant response rating; conditions: for Pigweed plant response rating (0 to 100 scale): 500 g ai/ha, postemergence, 0 is no effect, 100 is complete control; for Pigweed plant response rating: Postemergence, 125 g ai/ha, 0 to 100 scale (0 no effect, 100 complete control)
In short: as §1

[14] = system: ragweed (common ragweed, Ambrosia elatior); experiment: Test A postemergence, visual plant response rating; conditions: for Ragweed plant response rating (0 to 100 scale): 500 g ai/ha, postemergence, 0 is no effect, 100 is complete control; for Ragweed plant response rating: Postemergence, 125 g ai/ha, 0 to 100 scale (0 no effect, 100 complete control)
In short: as §1

[15] = system: wheat (Triticum aestivum); experiment: Test A postemergence, visual plant response rating; conditions: for Wheat plant response rating (0 to 100 scale): 500 g ai/ha, postemergence, 0 is no effect, 100 is complete control; for Wheat plant response rating: Postemergence, 125 g ai/ha, 0 to 100 scale (0 no effect, 100 complete control)
In short: as §1

[16] = system: barnyardgrass (Echinochloa crus-galli); experiment: Test B flooded paddy test, visual plant response rating; conditions: 250 g ai/ha, Flood, applied to paddy water, 2-leaf stage, evaluated after 13 to 15 days
In short: (§2)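 Seedlings at 2 leaves; compound into paddy water (3 cm flood, maintained); 13–15 d greenhouse; visual score relative to controls.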

[17] = system: ducksalad (Heteranhera limosa); experiment: as above; conditions: 250 g ai/ha, Flood, applied to paddy water, 2-leaf stage, evaluated after 13 to 15 days
In short: as §2

rice (Oryza sativa) = experiment: as above; conditions: 250 g ai/ha, Flood, applied to paddy water, 2-leaf stage, evaluated after 13 to 15 days
In short: as §2

[18] = system: sedge, umbrella (small-flower umbrella sedge, Cyperus difformis); experiment: as above; conditions: 250 g ai/ha, Flood, applied to paddy water, 2-leaf stage, evaluated after 13 to 15 days
In short: as §2

[19] = 125 g ai/ha, preemergence, 0 to 100 scale, 0 no effect, 100 complete control

| SMILES | Ryegrass, Italian plant response rating (0 to 100 scale) ([1]; 500 g ai/ha Preemergence) | Barnyardgrass plant response rating (0 to 100 scale) ([2]; 500 g ai/ha Preemergence) | Foxtail, Green plant response rating (0 to 100 scale) ([3]; 500 g ai/ha Preemergence) | Kochia plant response rating (0 to 100 scale) (kochia (Kochia scoparia) [4]; 500 g ai/ha Preemergence) | Pigweed plant response rating (0 to 100 scale) ([5]; 500 g ai/ha Preemergence) | Ragweed plant response rating (0 to 100 scale) ([6]; 500 g ai/ha Preemergence) | Ryegrass, Italian plant response rating (0 to 100 scale) [7] | Ryegrass, Italian plant response rating [7] | Barnyardgrass plant response rating (0 to 100 scale) [8] | Barnyardgrass plant response rating [8] | Blackgrass plant response rating (0 to 100 scale) [9] | Blackgrass plant response rating [9] | Corn plant response rating (0 to 100 scale) (corn (Zea mays)) | Corn plant response rating (corn (Zea mays)) | Foxtail, Green plant response rating (0 to 100 scale) [10] | Foxtail, Green plant response rating [10] | Galium plant response rating (0 to 100 scale) [11] | Galium plant response rating [11] | Kochia plant response rating (0 to 100 scale) (kochia (Kochia scoparia) [12]) | Kochia plant response rating (kochia (Kochia scoparia) [12]) | also measured |
| --- | --- | --- | --- | --- | --- | --- | --- | --- | --- | --- | --- | --- | --- | --- | --- | --- | --- | --- | --- | --- | --- |
| CCO/N=C(/c1ccc(C)cc1)c1c(O)c(C)nn(C)c1=O [Compound 16] | 50 | 0 | 0 | 0 | 0 | 20 | 0 | 0 | 10 | 0 | 0 | 0 | 0 | 0 | 10 | 0 | 0 | 0 | 10 | 0 | Ryegrass, Italian plant response rating (0 to 100 scale) ([1]; 125 g ai/ha Preemergence): 0; Barnyardgrass plant response rating (0 to 100 scale) ([2]; 125 g ai/ha Preemergence): 0; Foxtail, Green plant response rating (0 to 100 scale) ([3]; 125 g ai/ha Preemergence): 0; Kochia plant response rating (0 to 100 scale) (kochia (Kochia scoparia) [4]; 125 g ai/ha Preemergence): 0; Pigweed plant response rating (0 to 100 scale) ([5]; 125 g ai/ha Preemergence): 0; Ragweed plant response rating (0 to 100 scale) ([6]; 125 g ai/ha Preemergence): 0; Pigweed plant response rating (0 to 100 scale) [13]: 0; Pigweed plant response rating [13]: 0; Ragweed plant response rating (0 to 100 scale) [14]: 30; Ragweed plant response rating [14]: 0; Wheat plant response rating (0 to 100 scale) [15]: 0; Wheat plant response rating [15]: 0; Plant response rating, Barnyardgrass (0 to 100 scale, 0 is no effect, 100 is complete control) [16]: 0; Plant response rating, Ducksalad (0 to 100 scale, 0 is no effect, 100 is complete control) [17]: 0; Plant response rating, Rice (0 to 100 scale, 0 is no effect, 100 is complete control) (rice (Oryza sativa)): 0; Plant response rating, Sedge, Umbrella (0 to 100 scale, 0 is no effect, 100 is complete control) [18]: 0 |
| CON=C(c1cccc(C)c1)c1c(O)c(Cl)nn(C)c1=O [Compound 128] | 20 | 30 | 10 | 80 | 80 | 80 | 10 | 0 | 30 | 10 | 10 | 0 | 0 | 0 | 30 | 20 | 90 | 70 | 70 | 50 | Ryegrass, Italian plant response rating [1, 19]: 0; Barnyardgrass plant response rating [2, 19]: 0; Foxtail, Green plant response rating [3, 19]: 0; Kochia plant response rating (kochia (Kochia scoparia) [4]; [19]): 30; Pigweed plant response rating [5, 19]: 100; Ragweed plant response rating [6, 19]: 60; Pigweed plant response rating (0 to 100 scale) [13]: 60; Pigweed plant response rating [13]: 30; Ragweed plant response rating (0 to 100 scale) [14]: 80; Ragweed plant response rating [14]: 50; Wheat plant response rating (0 to 100 scale) [15]: 10; Wheat plant response rating [15]: 0; Plant response rating, Barnyardgrass (0 to 100 scale, 0 is no effect, 100 is complete control) [16]: 0; Plant response rating, Ducksalad (0 to 100 scale, 0 is no effect, 100 is complete control) [17]: 40; Plant response rating, Rice (0 to 100 scale, 0 is no effect, 100 is complete control) (rice (Oryza sativa)): 30; Plant response rating, Sedge, Umbrella (0 to 100 scale, 0 is no effect, 100 is complete control) [18]: 0 |
| CO/N=C(/c1cccc(C)c1C)c1c(O)c(C)nn(C)c1=O [Compound 23] | 90 | 20 | 50 | 20 | 80 | 90 | 50 | 30 | 0 | 0 | 50 | 20 | 0 | 0 | 0 | 0 | 60 | 50 | 30 | 10 | Ryegrass, Italian plant response rating (0 to 100 scale) ([1]; 125 g ai/ha Preemergence): 40; Barnyardgrass plant response rating (0 to 100 scale) ([2]; 125 g ai/ha Preemergence): 0; Foxtail, Green plant response rating (0 to 100 scale) ([3]; 125 g ai/ha Preemergence): 0; Kochia plant response rating (0 to 100 scale) (kochia (Kochia scoparia) [4]; 125 g ai/ha Preemergence): 0; Pigweed plant response rating (0 to 100 scale) ([5]; 125 g ai/ha Preemergence): 30; Ragweed plant response rating (0 to 100 scale) ([6]; 125 g ai/ha Preemergence): 60; Pigweed plant response rating (0 to 100 scale) [13]: 80; Pigweed plant response rating [13]: 20; Ragweed plant response rating (0 to 100 scale) [14]: 50; Ragweed plant response rating [14]: 40; Wheat plant response rating (0 to 100 scale) [15]: 0; Wheat plant response rating [15]: 0; Plant response rating, Barnyardgrass (0 to 100 scale, 0 is no effect, 100 is complete control) [16]: 0; Plant response rating, Ducksalad (0 to 100 scale, 0 is no effect, 100 is complete control) [17]: 0; Plant response rating, Rice (0 to 100 scale, 0 is no effect, 100 is complete control) (rice (Oryza sativa)): 0; Plant response rating, Sedge, Umbrella (0 to 100 scale, 0 is no effect, 100 is complete control) [18]: 0 |
| CO/N=C(/c1c(O)c(C)nn(C)c1=O)c1cccc2ccccc12 [Compound 31] | 70 | 70 | 90 | 90 | 90 | 80 | 90 | 60 | 90 | 40 | 90 | 80 | 50 | 20 | 80 | 50 | 90 | 90 | 80 | 70 | Ryegrass, Italian plant response rating (0 to 100 scale) ([1]; 125 g ai/ha Preemergence): 40; Barnyardgrass plant response rating (0 to 100 scale) ([2]; 125 g ai/ha Preemergence): 10; Foxtail, Green plant response rating (0 to 100 scale) ([3]; 125 g ai/ha Preemergence): 30; Kochia plant response rating (0 to 100 scale) (kochia (Kochia scoparia) [4]; 125 g ai/ha Preemergence): 10; Pigweed plant response rating (0 to 100 scale) ([5]; 125 g ai/ha Preemergence): 40; Ragweed plant response rating (0 to 100 scale) ([6]; 125 g ai/ha Preemergence): 30; Pigweed plant response rating (0 to 100 scale) [13]: 90; Pigweed plant response rating [13]: 60; Ragweed plant response rating (0 to 100 scale) [14]: 90; Ragweed plant response rating [14]: 70; Wheat plant response rating (0 to 100 scale) [15]: 20; Wheat plant response rating [15]: 0; Plant response rating, Barnyardgrass (0 to 100 scale, 0 is no effect, 100 is complete control) [16]: 25; Plant response rating, Ducksalad (0 to 100 scale, 0 is no effect, 100 is complete control) [17]: 0; Plant response rating, Rice (0 to 100 scale, 0 is no effect, 100 is complete control) (rice (Oryza sativa)): 40; Plant response rating, Sedge, Umbrella (0 to 100 scale, 0 is no effect, 100 is complete control) [18]: 0 |
